Some test systems named below: ACHN renal; COLO 205 colon; HOP-92 NSCLC; OVCAR-3 ovarian; SF-539 CNS; SK-MEL-2 melanoma; SK-OV-3 ovarian; SNB-19 CNS; SW-620 colon.
Holding throughout (assay): NCI tumour cell line growth inhibition, 48 h

SMILES strings stand for the structures.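 Protocol summary: plate cells (96-well), add compound at 5 concentrations, incubate 48 h, interpolate endpoints linearly. GI50 = concentration required for 50% inhibition of growth. At the TGI there is no net growth.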

Turning to `OCCCNCc1ccccn1`, the TGI in the assay on ACHN renal, with COLO 205 colon, with HOP-92 NSCLC, in the assay on OVCAR-3 ovarian, in the assay on SF-539 CNS and in the assay with SK-MEL-2 melanoma was > 100 µM throughout. For the same compound, the TGI with SK-OV-3 ovarian, in the assay on SNB-19 CNS and in the assay with SW-620 colon was > 100 µM in each case.

`CCOC(=O)/C=C/c1ccc(C(=O)OCC)[nH]1`: the GI50 in the assay on ACHN renal was 6.88 µM; in the assay on COLO 205 colon, 2.82 µM; in the assay on OVCAR-3 ovarian, 2.38 µM; with SF-539 CNS, 5.91 µM; with SK-OV-3 ovarian, 27.8 µM; in the assay on SNB-19 CNS, 24.7 µM. For the same compound, in the assay on SW-620 colon, the GI50 was 1.29 µM. Also, the TGI in the assay with ACHN renal was > 100 µM; in the assay with COLO 205 colon, 8.38 µM; in the assay with OVCAR-3 ovarian, 7.64 µM; in the assay with SF-539 CNS, 42.5 µM; in the assay on SK-OV-3 ovarian, > 100 µM; in the assay with SNB-19 CNS it was > 100 µM. Also, the TGI in the assay on SW-620 colon is > 100 µM.

`COC(=O)C12C3C4C1C1C2C3C41I` (stereo unspecified): the TGI with ACHN renal, in the assay on COLO 205 colon, in the assay on HOP-92 NSCLC, in the assay on OVCAR-3 ovarian, with SF-539 CNS and in the assay with SK-OV-3 ovarian was > 100 µM throughout. Besides, the TGI in the assay on SNB-19 CNS and in the assay on SW-620 colon was > 100 µM each time.

Regarding `O=C1c2cccc3cc([N+](=O)[O-])cc(c23)C(=O)N1CCCN1CCN(CCCN2C(=O)c3cccc4cc([N+](=O)[O-])cc(c34)C2=O)CC1`, the TGI is 4.28 µM in the assay on ACHN renal; 2.67 µM with COLO 205 colon; 5.2 µM in the assay with HOP-92 NSCLC; 4.81 µM with OVCAR-3 ovarian; 12 µM in the assay with SF-539 CNS; 5.34 µM in the assay with SK-MEL-2 melanoma. In addition, the TGI with SK-OV-3 ovarian was 46.8 µM; in the assay with SNB-19 CNS, > 100 µM; with SW-620 colon, > 100 µM.

For the compound `O=C(N/N=C/c1ccc(F)cc1)c1[nH]c2ccc(I)cc2c1-c1ccccc1`, the GI50 in the assay on ACHN renal was 0.719 µM; with COLO 205 colon, 0.482 µM; with HOP-92 NSCLC it was 12.5 µM; with OVCAR-3 ovarian it was 0.229 µM; in the assay on SF-539 CNS it was 0.338 µM; with SK-MEL-2 melanoma, 10.9 µM. In addition, the values for the GI50 in the assay on SK-OV-3 ovarian, in the assay with SNB-19 CNS and in the assay with SW-620 colon were 0.464 µM, 2.31 µM and 0.4 µM, respectively. Also, the TGI is > 100 µM with ACHN renal; 1.7 µM in the assay on COLO 205 colon; > 92.3 µM in the assay with HOP-92 NSCLC; 0.531 µM with OVCAR-3 ovarian; 1.34 µM with SF-539 CNS; > 100 µM with SK-MEL-2 melanoma. Moreover, the TGI was 10.7 µM with SK-OV-3 ovarian, > 82.1 µM with SNB-19 CNS and > 100 µM in the assay on SW-620 colon.

For `CCN(CC)C(=S)SSC1CCCCC1`, the GI50 in the assay on ACHN renal is 16.6 µM; in the assay with HOP-92 NSCLC it was 14.3 µM; in the assay on SF-539 CNS, 15.3 µM; with SK-MEL-2 melanoma it was 26.7 µM; in the assay with SK-OV-3 ovarian, 31.2 µM; in the assay on SNB-19 CNS, 32.6 µM. The GI50 in the assay on SW-620 colon was 11.7 µM. In addition, the TGI with ACHN renal was 32 µM; in the assay on HOP-92 NSCLC, 40 µM; in the assay with SF-539 CNS, 31.7 µM; in the assay with SK-MEL-2 melanoma, 61.2 µM; with SK-OV-3 ovarian it was 75 µM; in the assay with SNB-19 CNS, > 100 µM. This compound showed a TGI in the assay with SW-620 colon of 26.2 µM.

For the compound `O=C(/C=C/c1ccc([N+](=O)[O-])o1)NNC(=O)c1cc2ccccc2cc1O`, the GI50 with ACHN renal is 0.688 µM; with COLO 205 colon it was 1.92 µM; in the assay with HOP-92 NSCLC, 2.75 µM; in the assay on OVCAR-3 ovarian, 0.967 µM; with SF-539 CNS it was 2.06 µM; in the assay on SK-MEL-2 melanoma, 1.44 µM. Moreover, the values for the GI50 with SK-OV-3 ovarian, in the assay on SNB-19 CNS and with SW-620 colon were 4.23 µM, 4.6 µM and 2.03 µM, respectively. The TGI in the assay with ACHN renal is 2.24 µM; in the assay on COLO 205 colon it was 6.54 µM; in the assay on HOP-92 NSCLC, > 100 µM; with OVCAR-3 ovarian, > 21 µM; in the assay on SF-539 CNS, 7.52 µM; in the assay on SK-MEL-2 melanoma, 3.97 µM. Besides, the figures for the TGI with SK-OV-3 ovarian, with SNB-19 CNS and with SW-620 colon were > 100 µM, > 100 µM and > 89 µM, respectively.

For `OC1CCC(C2C3CCCCC3C3CCCCC3C2C2CCC(O)CC2)CC1` (stereo unspecified), the TGI in the assay with ACHN renal is 7.48 µM; in the assay with HOP-92 NSCLC, 98.9 µM; in the assay on OVCAR-3 ovarian, > 100 µM; in the assay on SF-539 CNS, 75.5 µM; in the assay with SK-MEL-2 melanoma, 25.3 µM; in the assay on SK-OV-3 ovarian it was 31 µM. Further, the TGI in the assay on SNB-19 CNS turned out to be 32.2 µM; in the assay on SW-620 colon, 19.6 µM.

On to `Cc1ccc(N2C(=O)C(Cl)=C(Nc3cccc(O)c3)C2=O)cc1Cl`, for which the GI50 in the assay with ACHN renal is 17.5 µM; with COLO 205 colon, 26.4 µM; in the assay on HOP-92 NSCLC, 15.7 µM; with OVCAR-3 ovarian, 15.3 µM; in the assay with SK-MEL-2 melanoma, 38 µM; in the assay with SK-OV-3 ovarian, 21 µM. Moreover, the GI50 in the assay with SNB-19 CNS is 23.3 µM. The TGI with ACHN renal was 32.7 µM; in the assay on COLO 205 colon it was 73 µM; in the assay on HOP-92 NSCLC it was 37.6 µM; in the assay on OVCAR-3 ovarian it was 28.9 µM; in the assay on SK-MEL-2 melanoma, > 100 µM; in the assay on SK-OV-3 ovarian it was 44.2 µM. Besides, the TGI with SNB-19 CNS was 65.5 µM.

As to `O=C(Nc1ccc(Br)cc1)c1cc(Br)cc(Br)c1O`, the GI50 is 2.31 µM in the assay with ACHN renal; 2.33 µM with COLO 205 colon; 2.95 µM in the assay with OVCAR-3 ovarian; 2.89 µM in the assay with SF-539 CNS; 2.27 µM with SK-MEL-2 melanoma; 3.14 µM in the assay with SK-OV-3 ovarian. Also, the results for the GI50 in the assay on SNB-19 CNS and with SW-620 colon were 3.55 µM and 3.39 µM, respectively. Also, the TGI in the assay on ACHN renal was 6.66 µM; with COLO 205 colon it was 4.59 µM; with OVCAR-3 ovarian, 8 µM; with SF-539 CNS, 12.4 µM; in the assay with SK-MEL-2 melanoma, 6.12 µM; with SK-OV-3 ovarian, > 100 µM. Also, the TGI in the assay on SNB-19 CNS was > 100 µM; in the assay on SW-620 colon, 12.6 µM.

For the compound `CCOC(=O)C(=O)Nc1c(C)cccc1CC`, the TGI in the assay on ACHN renal, in the assay on HOP-92 NSCLC, in the assay on OVCAR-3 ovarian, with SF-539 CNS, in the assay with SK-MEL-2 melanoma and with SK-OV-3 ovarian was > 100 µM in each case. Also, the TGI with SNB-19 CNS and in the assay on SW-620 colon was > 100 µM in each case.
